According to US10538521B2, “Pyrimidine derivative having antimalarial activity” (CARNA BIOSCIENCES, INC., priority 2016, dated 2020):
Structures can show the parent of a compound that is named as a salt. Where two headings read alike, the source gives them in different places.

Columns and labels:
[1] = tested on: FCR3 strain, a drug sensitive strain of Plasmodium falciparum; experiment: In vitro antimalarial assay (p-LDH, Malstat), FCR3 strain; assay type: cell-based; settings: read-out: Antimalarial activity (IC50 value), Strain FCR3
Summary of the method: (§1)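 IC50 derived from concentration-response of parasite lactate dehydrogenase signal (Malstat reagent, NBT/PES formazan at 655 nm) after freeze-thaw lysis. Infected erythrocytes (hematocrit 2%, parasitaemia 0.5 or 1%) exposed 72 h to 12.5–0.0001 μM final compound under 3% O2-4% CO2-93% N2, FCR3 and K1 alike.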

[2] = tested on: P. berghei N strain (drug sensitive strain); experiment: In vivo antimalarial assay, mouse model infected with rodent malaria; settings: Plasmodium berghei, ip, 96 h, read-out: Therapeutical Effect (%) inhibition; for inhibition in vivo at 3 mg/kg: 3 mg/kg i.p.
Protocol: In vivo antimalarial activity of the compound of the present invention was determined using a mouse model infected with rodent malaria P. berghei N strain (drug sensitive strain) by slightly modifying the method described in the above publication of Otoguro et al. (2001) and the method reported by Peters et al. (Peters, W., Portus, J. H. and Robinson, B. L.: The chemotherapy of rodent malaria. XXII. The value of drug-resistant strains of P. berghei in Screening for blood schizonticidal activity. Ann. Trop. Med. Parasitol., 69: 155-171, (1975)). The P. berghei N strain was generous gift from Dr. W. Peters (Northwick Park Institute for Medical Research, Middlesex, United Kingdom).
A group of three ICR male mice (Charles River Laboratories Japan, Inc.) weighing 18 to 20 g was used as a test animal. Using protozoa maintained and sub-cultured by in vivo passage, 2×10^6 parasite-infected erythrocytes were pre pared, and the mice were infected therewith by tail vein injection. For the therapeutic test, a 1-day suppressive test was performed. The day of infection was defined as day 0. Two hours after the infection, a solution of the test compound (solvent: 3% DMSO/0.5% methylcellulose400-solution or suspension) was administered intraperitoneally (i.p.) once to 3 times. On day 4, blood smear preparation was prepared by collecting from the tail vein and the ratio of parasite-infected erythrocytes (parasitaemia) was investigated to determine the therapeutic effect (inhibition percentage) based on the infection rate of the group to which the compound was not administered. The significance test was performed by Dunnett's test.

[3] = tested on: K1 strain, a drug resistant strain of Plasmodium falciparum; experiment: In vitro antimalarial assay (p-LDH, Malstat), K1 strain; assay type: cell-based; settings: read-out: Antimalarial activity (IC50 value), Strain K1
Summary of the method: as §1

[4] = P. falciparum FCR3 (drug sensitive), 72 h culture, p-LDH readout
[5] = 10 mg/kg i.p., administered once, parasitaemia on day 4, ICR mice
[6] = P. falciparum K1 (drug resistant), 72 h culture, p-LDH readout
[7] = 10 mg/kg i.p., administered three times (day 0, 1 and 2), parasitaemia on day 4, ICR mice
[8] = 10 mg/kg i.p., administered twice (day 0 and 1), parasitaemia on day 4, ICR mice

| IC50 [1, 4] | IC50 [3, 6] | SMILES | inhibition in vivo at 10 mg/kg [2, 5] | further results |
| --- | --- | --- | --- | --- |
| < 100 nM | < 100 nM | CCCc1cccc(Nc2nc(Nc3ccn4ccnc4c3)cc(N3CCCCC3)n2)n1 [Example 105, N4-(imidazo[1,2-a]pyridin-7-yl)-6-(piperidin-1-yl)-N2-(6-propylpyridin-2-yl)pyrimidine-2,4-diamine] | 41.9% |  |
| < 100 nM | < 100 nM | Cc1cc(C)nc(Nc2nc(Nc3ccn4ccnc4c3)cc(N3CCC(C)(C)C3)n2)c1 [Example 142, N2-(4,6-dimethylpyridin-2-yl)-6-(3,3-dimethylpyrrolidin-1-yl)-N4-(imidazo[1,2-a]pyridin-7-yl)pyrimidine-2,4-diamine] |  | inhibition in vivo at 10 mg/kg [2, 7]: 84.5% |
| 100 to 1000 nM | < 100 nM | Cc1ccnc(Nc2nc(Nc3ccn4ccnc4c3)cc(N3CCCCC3)n2)c1 [Example 34, N4-(imidazo[1,2-a]pyridin-7-yl)-N2-(4-methylpyridin-2-yl)-6-(piperidin-1-yl)pyrimidine-2,4-diamine] | 51.5% |  |
|  |  | Cc1cc(C)nc(Nc2nc(Nc3ccn4ccnc4c3)cc(N3CC(C)C(C)C3)n2)c1 (centres unmarked) [Example 147, N2-(4,6-dimethylpyridin-2-yl)-6-(3,4-dimethylpyrrolidin-1-yl)-N4-(imidazo[1,2-a]pyridin-7-yl)pyrimidine-2,4-diamine formate] |  | IC50 ([1]; FCR3, 72 h): < 100 nM; inhibition in vivo at 10 mg/kg [2]: 83.4%; IC50 ([3]; K1, 72 h): < 100 nM |
| < 100 nM | < 100 nM | COc1ccnc(Nc2nc(Nc3ccn4ccnc4c3)cc(N3CCCCC3)n2)c1 [Example 93, N4-(imidazo[1,2-a]pyridin-7-yl)-N2-(4-methoxypyridin-2-yl)-6-(piperidin-1-yl)pyrimidine-2,4-diamine] |  | inhibition in vivo at 3 mg/kg ([2]; administered twice (day 0 and 1), parasitaemia on day 4, ICR mice): 64.2% |
| < 100 nM | < 100 nM | Cc1cccc(Nc2nc(Nc3ccn4ccnc4c3)cc(N3CCCCC3)n2)n1 [Example 28, N4-(imidazo[1,2-a]pyridin-7-yl)-N2-(6-methylpyridin-2-yl)-6-(piperidin-1-yl)pyrimidine-2,4-diamine] | 51.4% |  |
| < 100 nM | < 100 nM | Cc1cc(C)nc(Nc2nc(Nc3ccn4ccnc4c3)cc(N3CCC4(CCCC4)C3)n2)c1 [Example 174, N2-(4,6-dimethylpyridin-2-yl)-N4-(imidazo[1,2-a]pyridin-7-yl)-6-(2-azaspiro[4.4]nonan-2-yl)pyrimidine-2,4-diamine] |  | inhibition in vivo at 10 mg/kg [2, 8]: 93.6% |
| < 100 nM | < 100 nM | CCc1ccnc(Nc2nc(Nc3ccn4ccnc4c3)cc(N3CCCC3)n2)c1 [Example 94, N2-(4-ethylpyridin-2-yl)-N4-(imidazo[1,2-a]pyridin-7-yl)-6-(pyrrolidin-1-yl)pyrimidine-2,4-diamine] |  | inhibition in vivo at 3 mg/kg ([2]; administered once, parasitaemia on day 4, ICR mice): 42.9% |
| < 100 nM | < 100 nM | CC(C)Cc1cccc(Nc2nc(Nc3ccn4ccnc4c3)cc(N3CCCC3)n2)n1 [Example 161, N4-(imidazo[1,2-a]pyridin-7-yl)-N2-(6-isobutylpyridin-2-yl)-6-(pyrrolidin-1-yl)pyrimidine-2,4-diamine] |  | inhibition in vivo at 10 mg/kg [2, 8]: 64.3% |
| < 100 nM | < 100 nM | CCc1ccnc(Nc2nc(Nc3ccn4ccnc4c3)cc(N3CCC(OC)CC3)n2)c1 [Example 114, N2-(4-ethylpyridin-2-yl)-N4-(imidazo[1,2-a]pyridin-7-yl)-6-(4-methoxypiperidin-1-yl)pyrimidine-2,4-diamine] | 70.9% |  |
| < 100 nM | < 100 nM | CCCCc1cccc(Nc2nc(Nc3ccn4ccnc4c3)cc(N3CCCC3)n2)n1 [Example 165, N2-(6-butylpyridin-2-yl)-N4-(imidazo[1,2-a]pyridin-7-yl)-6-(pyrrolidin-1-yl)pyrimidine-2,4-diamine] |  | inhibition in vivo at 10 mg/kg [2, 8]: 98% |
| < 100 nM | < 100 nM | CCc1ccnc(Nc2nc(Nc3ccn4ccnc4c3)cc(N3CCOCC3)n2)c1 [Example 68, N2-(4-ethylpyridin-2-yl)-N4-(imidazo [1,2-a]pyridin-7-yl)-6-morpholinopyrimidine-2,4-diamine] | 41.7% |  |
| < 100 nM | < 100 nM | Cc1cc(C)nc(Nc2nc(Nc3ccn4ccnc4c3)cc(N3CCCCC3)n2)c1 [Example 32, N2-(4,6-dimethylpyridin-2-yl)-N4-(imidazo[1,2-a]pyridin-7-yl)-6-(piperidin-1-yl)pyrimidine-2,4-diamine] | 47.5% |  |
| < 100 nM | < 100 nM | CCc1ccnc(Nc2nc(Nc3ccn4ccnc4c3)cc(N3CCC(C)(C)C3)n2)c1 [Example 170, 6-(3,3-dimethylpyrrolidin-1-yl)-N2-(4-ethylpyridin-2-yl)-N4-(imidazo[1,2-a]pyridin-7-yl) pyrimidine-2,4-diamine] | 92.9% |  |
| < 100 nM | < 100 nM | CCCCc1cccc(Nc2nc(Nc3ccn4ccnc4c3)cc(N3CCCCC3)n2)n1 [Example 106, N2-(6-butylpyridin-2-yl)-N4-(imidazo[1,2-a]pyridin-7-yl)-6-(piperidin-1-yl)pyrimidine-2,4-diamine] |  | inhibition in vivo at 10 mg/kg [2, 7]: 87.4% |
| 100 to 1000 nM | 1000 to 10000 nM | c1ncc(Nc2nc(Nc3ccn4ccnc4c3)cc(N3CCOCC3)n2)cn1 [Example 8, N4-(Imidazo[1,2-a]pyridin-7-yl)-6-morpholino-N2-(pyrimidin-5-yl)pyrimidine-2,4-diamine] |  |  |
